Results published in patent publication US11220504B2, “Pyrrolo[3,2-d] pyrimidine derivatives for the treatment of viral infections and other diseases” (JANSSEN SCIENCES IRELAND UNLIMITED COMPANY, priority 2012, dated 2022).

Experiments:
human TLR7 = target: T1, human TLR7 (Homo sapiens, UniProt Q9NYK1); assay: TLR7 cellular reporter assay (HEK293, NFκB-luc); format: cell-based; conditions: HEK293 cells transfected with CMV-TLR7 and NFκB-luc, 6 hours incubation; lowest effective concentration
T1 construct: expressed in transfected cells; host or cells: HEK293 cells, transient transfection with CMV-TLR7 plasmid and NFκB-luc plasmid
T1 sequence (Q9NYK1 27-1049): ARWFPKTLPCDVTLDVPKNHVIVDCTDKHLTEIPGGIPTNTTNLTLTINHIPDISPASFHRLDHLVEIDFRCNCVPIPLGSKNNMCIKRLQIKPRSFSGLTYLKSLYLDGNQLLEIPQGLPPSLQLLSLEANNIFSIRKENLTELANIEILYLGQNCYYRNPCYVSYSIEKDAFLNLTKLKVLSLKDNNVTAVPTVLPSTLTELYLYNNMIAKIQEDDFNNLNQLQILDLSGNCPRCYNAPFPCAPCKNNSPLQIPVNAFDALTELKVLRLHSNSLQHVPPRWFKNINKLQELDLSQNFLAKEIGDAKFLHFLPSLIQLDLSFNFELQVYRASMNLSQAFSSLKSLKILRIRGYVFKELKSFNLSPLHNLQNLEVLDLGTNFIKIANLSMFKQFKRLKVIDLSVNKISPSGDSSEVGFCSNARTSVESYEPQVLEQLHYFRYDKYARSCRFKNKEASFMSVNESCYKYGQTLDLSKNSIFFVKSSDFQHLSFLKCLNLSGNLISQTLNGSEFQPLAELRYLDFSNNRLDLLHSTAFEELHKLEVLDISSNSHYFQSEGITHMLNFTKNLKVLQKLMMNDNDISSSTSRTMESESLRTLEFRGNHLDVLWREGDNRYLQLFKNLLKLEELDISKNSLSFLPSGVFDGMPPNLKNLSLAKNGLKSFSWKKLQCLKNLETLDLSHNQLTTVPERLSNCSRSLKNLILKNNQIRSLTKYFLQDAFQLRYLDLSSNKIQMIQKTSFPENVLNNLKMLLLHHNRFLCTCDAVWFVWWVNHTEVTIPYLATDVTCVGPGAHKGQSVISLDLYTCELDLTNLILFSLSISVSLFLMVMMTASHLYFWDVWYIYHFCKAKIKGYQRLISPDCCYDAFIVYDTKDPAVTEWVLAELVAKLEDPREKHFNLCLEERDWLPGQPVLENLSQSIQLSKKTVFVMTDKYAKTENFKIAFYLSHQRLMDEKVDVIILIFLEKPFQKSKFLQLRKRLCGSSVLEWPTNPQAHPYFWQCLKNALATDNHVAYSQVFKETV
In short: (§1)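 HEK293 cells transiently transfected with receptor expression vector plus NFκB-luciferase reporter, exposed to compound (added in 4% DMSO) for 6 hours at 37° C, 5% CO2. Luciferase activity measured by luminescence; dose-response curves from quadruplicate measurements.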

human TLR8 = target: T2, human TLR8 (Homo sapiens, UniProt Q9NR97); assay: TLR8 cellular reporter assay (HEK293, NFκB-luc); format: cell-based; conditions: HEK293 cells transfected with CMV-TLR8 and NFκB-luc, 6 hours incubation; lowest effective concentration
T2 construct: expressed in transfected cells; host or cells: HEK293 cells, transient transfection with TLR8 plasmid and NFκB-luc plasmid
T2 sequence (Q9NR97 27-1041): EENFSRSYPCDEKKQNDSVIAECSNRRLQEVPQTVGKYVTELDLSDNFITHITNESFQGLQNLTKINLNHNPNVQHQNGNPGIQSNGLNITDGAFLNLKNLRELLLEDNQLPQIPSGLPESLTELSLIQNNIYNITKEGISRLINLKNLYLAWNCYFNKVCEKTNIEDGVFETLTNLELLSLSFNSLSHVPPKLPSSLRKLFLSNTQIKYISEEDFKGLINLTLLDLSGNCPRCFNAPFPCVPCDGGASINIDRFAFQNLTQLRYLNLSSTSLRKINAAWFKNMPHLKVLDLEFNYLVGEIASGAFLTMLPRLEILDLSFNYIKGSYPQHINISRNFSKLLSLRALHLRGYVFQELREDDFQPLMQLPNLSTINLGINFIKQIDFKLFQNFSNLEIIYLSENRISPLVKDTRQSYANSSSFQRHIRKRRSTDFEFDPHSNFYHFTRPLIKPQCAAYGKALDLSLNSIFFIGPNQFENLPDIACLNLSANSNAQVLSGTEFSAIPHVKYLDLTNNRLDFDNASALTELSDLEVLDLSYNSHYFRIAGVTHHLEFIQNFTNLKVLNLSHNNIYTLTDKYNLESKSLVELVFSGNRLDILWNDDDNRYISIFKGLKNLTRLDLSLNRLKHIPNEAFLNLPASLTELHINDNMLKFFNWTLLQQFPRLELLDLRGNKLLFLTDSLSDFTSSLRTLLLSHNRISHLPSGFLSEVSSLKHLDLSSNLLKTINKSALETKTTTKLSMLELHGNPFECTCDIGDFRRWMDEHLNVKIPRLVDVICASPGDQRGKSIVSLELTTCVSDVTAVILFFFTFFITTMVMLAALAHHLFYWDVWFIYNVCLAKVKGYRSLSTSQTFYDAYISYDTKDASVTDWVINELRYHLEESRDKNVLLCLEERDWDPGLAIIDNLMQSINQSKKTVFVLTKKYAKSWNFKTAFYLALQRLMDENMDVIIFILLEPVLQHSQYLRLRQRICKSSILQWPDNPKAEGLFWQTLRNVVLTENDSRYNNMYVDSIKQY
In short: as §1

[1] = tested on: interferon-stimulated responsive elements (ISRE); assay: Activation of ISRE promoter elements by conditioned media from PBMC (HEK-ISREluc); format: cell-based, human; conditions: Homo sapiens; conditioned media from PBMC transferred to HEK-ISREluc cells, 24 hours; lowest effective concentration; read-out: PBMC LEC
In short: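 Human PBMCs (≥2 donors, RPMI + 10% human AB serum, 2×10^5 cells/well) incubated overnight with compound; supernatant transferred to HEK293 cells stably carrying pISRE-Luc for 24 h, then luciferase read. LEC = compound concentration on PBMCs giving luciferase signal at least two-fold above assay SD; recombinant IFN-α-2a standard.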

Compound | TLR7 LEC (human TLR7) | TLR8 LEC (human TLR8) | minimal effective concentration [1]
COCCNc1nc(N)nc2ccn(Cc3cccc(CN4CCCC4)c3)c12 [Compound 111] | 0.637 µM | >25 µM | 0.293 µM
Cc1cc(CNc2nc(N)nc3ccn(Cc4ccncc4)c23)no1 [Compound 112] | 0.741 µM | >25 µM | 0.209 µM
COCCNc1nc(N)nc2ccn(Cc3cccc(C)n3)c12 [Compound 113] | 1.320 µM | >25 µM | 0.807 µM
COCCNc1nc(N)nc2ccn(Cc3ncccc3OC)c12 [Compound 115] | 0.241 µM | 7.93 µM | 0.079 µM
CCCCNc1nc(N)nc2ccn(Cc3cccc(CN4CCCC4)c3)c12 [Compound 116] | 0.049 µM | >25 µM | 0.022 µM
COCCNc1nc(N)nc2ccn(Cc3ccc(C(F)(F)F)cn3)c12 [Compound 117] | 2.950 µM | >22.7 µM | 1.43 µM
COCCNc1nc(N)nc2ccn(Cc3ccncc3)c12 [Compound 118] | 1.650 µM | >25 µM | 3.01 µM
COCCNc1nc(N)nc2ccn(Cc3cc(OC)ccn3)c12 [Compound 120] | 3.220 µM | >25 µM | 2.16 µM
COCCNc1nc(N)nc2ccn(Cc3ccncc3OC)c12 [Compound 121] | 0.172 µM | >25 µM | 0.046 µM
COc1cnccc1Cn1ccc2nc(N)nc(NCc3cc(C)on3)c21 [Compound 123] | 0.026 µM | >25 µM | 0.002 µM
COCCn1ccc2nc(N)nc(NCc3cc(C)on3)c21 [Compound 128] | 0.342 µM | >25 µM | 0.062 µM
CCOc1ccccc1Cn1ccc2nc(N)nc(NCCOC)c21 [Compound 129] | 0.670 µM | >25 µM | 0.122 µM
CCCCNc1nc(N)nc2ccn(Cc3ccccc3OC(F)(F)F)c12 [Compound 130] | 1.940 µM | >25 µM | 0.804 µM
COCCNc1nc(N)nc2ccn(Cc3cscn3)c12 [Compound 132] | 5.99 µM | >25 µM | 0.879 µM
CCCCNc1nc(N)nc2ccn(Cc3ccccc3OCC)c12 [Compound 133] | 0.07 µM | >25 µM | 0.023 µM
CCCCNc1nc(N)nc2ccn(Cc3cc(OC4CCOC4)c(OC)cn3)c12 (stereo not drawn) [Compound 134] | 1.20 µM | >25 µM | 0.104 µM
COCCNc1nc(N)nc2ccn(Cc3cc(OC4CCOC4)c(OC)cn3)c12 (stereo not drawn) [Compound 135] | 12.5 µM | >25 µM | 4.05 µM

Compound | TLR7 LEC (human TLR7) | TLR8 LEC (human TLR8) | minimal effective concentration [1]
CC(C)OCCNc1nc(N)nc2ccn(Cc3ccccn3)c12 [Compound 137] | 13.8 µM | >25 µM | 2.03 µM
Nc1nc(NCC2CCCO2)c2c(ccn2Cc2ccccn2)n1 (stereo not drawn) [Compound 139] | 1.41 µM | >25 µM | 0.588 µM
Cc1cc(CNc2nc(N)nc3ccn(Cc4cccc(C(F)(F)F)n4)c23)no1 [Compound 143] | 0.10 µM | >25 µM | 0.016 µM
COCCNc1nc(N)nc2ccn(Cc3ncc(C)c(OC)c3C)c12 [Compound 147] | 4.49 µM | >25 µM | 2.02 µM
CCCCNc1nc(N)nc2ccn(C[C@H]3CCCO3)c12 [Compound 148] | 0.16 µM | 3.93 µM | 0.056 µM
CCCCNc1nc(N)nc2ccn(Cc3cccc4c3OCC4)c12 [Compound 149] | 0.02 µM | >25 µM | 0.006 µM
COCCNc1nc(N)nc2ccn(Cc3cccc4c3OCC4)c12 [Compound 150] | 0.25 µM | >25 µM | 0.054 µM
Cc1cc(CNc2nc(N)nc3ccn(Cc4cccc(CN5CCCC5)c4)c23)no1 [Compound 153] | 0.05 µM | >25 µM | 0.002 µM
Cc1cc(CNc2nc(N)nc3ccn(Cc4cscn4)c23)no1 [Compound 154] | 0.08 µM | >25 µM | 0.017 µM
Cc1cc(CNc2nc(N)nc3ccn(Cc4cn5ccccc5n4)c23)no1 [Compound 157] | 0.03 µM | >25 µM | 0.003 µM
Cc1cc(CNc2nc(N)nc3ccn(Cc4cccc(Cl)n4)c23)no1 [Compound 159] | 0.05 µM | >25 µM | 0.019 µM
COCCNc1nc(N)nc2ccn(C[C@H]3CCCO3)c12 [Compound 160] | 8.07 µM | >25 µM | 1.81 µM
CCCCNc1nc(N)nc2ccn(Cc3ccccc3OC(F)F)c12 [Compound 161] | 0.02 µM | >25 µM | 0.009 µM
COCCNc1nc(N)nc2ccn(Cc3ccccc3OC(F)F)c12 [Compound 162] | 0.32 µM | >25 µM | 0.128 µM
CCCCNc1nc(N)nc2ccn(Cc3cccc4c3OCCO4)c12 [Compound 163] | <0.01 µM | 0.75 µM | 0.001 µM
COCCNc1nc(N)nc2ccn(Cc3cccc4c3OCCO4)c12 [Compound 164] | 0.04 µM | 15.93 µM | 0.025 µM
COc1ccnc(Cn2ccc3nc(N)nc(NCc4cc(C)on4)c32)c1 [Compound 167] | 0.09 µM | >25 µM | 0.008 µM
